{"source": "ChEMBL document CHEMBL1240479", "about": "“Exploring benzcyclo derivatives as potent aromatase inhibitors using ligand-based modeling studies” (Eur J Med Chem, 2010)", "data": [{"target": "T1, Aromatase (Homo sapiens, UniProt P11511)", "T1 sequence (P11511 whole entry)": "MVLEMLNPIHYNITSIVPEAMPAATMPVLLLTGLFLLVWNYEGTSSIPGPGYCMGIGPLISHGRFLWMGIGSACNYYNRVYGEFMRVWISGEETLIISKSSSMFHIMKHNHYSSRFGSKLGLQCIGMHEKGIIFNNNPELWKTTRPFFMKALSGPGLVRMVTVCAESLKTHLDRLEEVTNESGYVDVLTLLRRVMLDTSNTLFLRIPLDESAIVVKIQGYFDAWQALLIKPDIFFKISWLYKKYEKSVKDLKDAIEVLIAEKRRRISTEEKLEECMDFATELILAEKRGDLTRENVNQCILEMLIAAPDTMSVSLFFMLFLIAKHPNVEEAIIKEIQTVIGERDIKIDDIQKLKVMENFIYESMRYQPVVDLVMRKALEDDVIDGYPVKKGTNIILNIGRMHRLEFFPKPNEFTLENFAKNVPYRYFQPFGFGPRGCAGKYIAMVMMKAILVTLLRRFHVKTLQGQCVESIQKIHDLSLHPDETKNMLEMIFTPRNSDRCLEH", "assay": "Inhibition of aromatase", "units": {"IC50": "µM"}, "values": [{"smiles": "Brc1ccc2c(c1)CCC2=Cc1ccncc1", "IC50": 3.4}, {"smiles": "C(=C(c1ccccc1)c1ccccc1)c1cccnc1", "IC50": 3.68}, {"smiles": "Brc1ccc2c(c1)CC/C2=C/c1ccncc1", "IC50": 3.96}]}]}
